Where a SMILES comes first, the peptide text is derived from it. The star is where a group is joined. Propyl(2R-PamO,3-PamO) = CCCCCCCCCCCCCCCC(=O)OC[C@H](C*)OC(=O)CCCCCCCCCCCCCCC; Palmitoyl = CCCCCCCCCCCCCCCC(=O)*

The results in this text go back to patent US20150299290A1, “IMMUNOGENIC VACCINE” (University of Georgia Research Foundation, Inc., priority 2010, published 2015).

In assay [1] the test system is GSTPVS(β-O-GlcNAc)SANM (BSA-MI-66 conjugate). Further details: species or system BALB/c mice. To be noted: mouse, in vivo.
The test system of assay [2] is RAW γNO(−) cells. Put plainly: TNF-α and IFN-β production by mouse macrophages (Example 3). In kind it is cell-based. The following applies: best-fit values (Prism). On the procedure:
After 5 hours, the supernatants were harvested and examined for mouse TNF-α and IFN-β using commercial or in-house developed capture ELISA assays, respectively.

The test system of assay [3] is RAW 264.7 γNO(−) cells. Put plainly: TNF-α and IFN-β assays in macrophages (Example 6). In kind it is cell-based, mouse. The following applies: 5.5 h. As for the experimental part:
To examine cytokine production, mouse macrophages (RAW γNO(−) cells) were exposed over a wide range of concentrations to compounds 21-24, E. coli 055:B5 LPS and prototypic E. coli bisphosphoryl lipid A (Zhang, J. Am. Chem. Soc. 2007, 129, 5200-5216). After 5.5 h, the supernatants were harvested and examined for mouse TNF-α and IFN-β using commercial or in-house developed capture ELISAs, respectively (FIG. 6). […] The reduced efficacy of compounds 21 and 23 is probably a beneficial property, because LPS can over-activate the innate immune system leading to symptoms of septic shock.
RAW 264.7 γNO(−) cells were plated on the day of the exposure assay as 2×10^5 cells/well in 96-well plates (Nunc) and incubated with different stimuli for 5.5 h in the presence or absence of polymyxin B. Culture supernatants were collected and stored frozen (−80° C.) until assayed for cytokine production. Concentrations of TNF-α were determined using the TNF-α DuoSet ELISA Development kit from R&D Systems. Concentrations of IFN-β were determined as follows. ELISA MaxiSorp plates were coated with rabbit polyclonal antibody against mouse IFN-β (PBL Biomedical Laboratories). IFN-β in standards and samples was allowed to bind to the immobilized antibody. Rat anti-mouse IFN-β antibody (USBiological) was then added, producing an antibody-antigen-antibody “sandwich”. Next, horseradish peroxidase (HRP) conjugated goat anti-rat IgG (H+L) antibody (Pierce) and a chromogenic substrate for HRP 3,3′,5,5′-tetramethylbenzidine (TMB; Pierce) were added. After the reaction was stopped, the absorbance was measured at 450 nm with wavelength correction set to 540 nm. Concentration-response data were analyzed using nonlinear least-squares curve fitting in Prism (GraphPad Software, Inc.). […] The Hill slope was set at 1 to be able to compare the EC50 values of the different inducers. All cytokine values are presented as the means±SD of triplicate measurements, with each experiment being repeated three times.

As for “Pam3CysSK4G-C-KLFAVWKITYKDT-G-GSTPVS(β-O-GluNAc)SANM [Compound 52]”, in assay [1], the “IgG1 titer (anti-GSTPVS(β-O-GlcNAc)SANM)” value is recorded as 61,400, the “IgG2a titer (anti-GSTPVS(β-O-GlcNAc)SANM)” value is listed as 33,200, the “IgG2b titer (anti-GSTPVS(β-O-GlcNAc)SANM)” value is given as 12,500 and the “IgG3 titer (anti-GSTPVS(β-O-GlcNAc)SANM)” value was 69,400. Besides, in assay [1], the “IgG total titer (anti-GSTPVS(β-O-GlcNAc)SANM)” value is reported as 76,500 and the “IgM titer (anti-GSTPVS(β-O-GlcNAc)SANM)” value is recorded as 81,900.
With “Pam3CysSK4G-C-KLFAVWKITYKDT-G-GSTPVS(β-S-GluNAc)SANM [Compound 53]”, in assay [1], the “IgG1 titer (anti-GSTPVS(β-O-GlcNAc)SANM)” value is on record as 111,800, the “IgG2a titer (anti-GSTPVS(β-O-GlcNAc)SANM)” value is listed as 55,600, the “IgG2b titer (anti-GSTPVS(β-O-GlcNAc)SANM)” value is on record as 21,300 and the “IgG3 titer (anti-GSTPVS(β-O-GlcNAc)SANM)” value was 111,700. For the same compound, in assay [1], the “IgG total titer (anti-GSTPVS(β-O-GlcNAc)SANM)” value was 151,600 and the “IgM titer (anti-GSTPVS(β-O-GlcNAc)SANM)” value is 21,900.
With `CCCCCCCCCCCCCCCC(=O)OC[C@H](CSC[C@H](N)C(=O)N[C@@H](CO)C(=O)N[C@@H](CCCCN)C(=O)N[C@@H](CCCCN)C(=O)N[C@@H](CCCCN)C(=O)N[C@@H](CCCCN)C(=O)O)OC(=O)CCCCCCCCCCCCCCC` [Pam2CysSK4, S—[(R)-2,3-bis(palmitoyloxy)-propyl]-(R)-cysteinyl-(S)-seryl-(S)-lysine-(S)-lysine-(S)-lysine-(S)-lysyne] (H-C(Propyl(2R-PamO,3-PamO))SKKKK-OH; C-terminus assumed), the “Emax for TNF-α production” value in assay [2] was 631 pg/mL.
As to `CCCCCCCCCCCCCCCC(=O)N[C@@H](CSC[C@@H](COC(=O)CCCCCCCCCCCCCCC)OC(=O)CCCCCCCCCCCCCCC)C(=O)N[C@@H](CO)C(=O)N[C@@H](CCCCN)C(=O)N[C@@H](CCCCN)C(=O)N[C@@H](CCCCN)C(=O)N[C@@H](CCCCN)C(=O)O` [Pam3CysSK4, N-palmitoyl-S—[(R)-2,3-bis(palmitoyloxy)-propyl]-(R)-cysteinyl-(S)-seryl-(S)-lysine-(S)-lysine-(S)-lysine-(S)-lysyne] (Palmitoyl-C(Propyl(2R-PamO,3-PamO))SKKKK-OH), in assay [3], the IFN-β secretion entry is “none of the compounds induced the production of INF-β”; the TNF-α secretion entry was “induced secretion of TNF-α with similar efficacies and potencies”. Besides, the “Emax for TNF-α production” value in assay [2] is 932 pg/mL.
For the compound monophosphoryl lipid A [Compound 24], in assay [3], the IFN-β secretion entry is “stimulated the cells to produce TNF-α and INF-β”; the TNF-α secretion result is “stimulated the cells to produce TNF-α and INF-β”.
